Values joined by “and” are separate entries in the source; they are usually repeats but may differ in a detail not shown here. Identical values can stand only once. Inconclusive results and toxic doses are left out.

The assay relates to P388 leukemia ip, CD2F1 mice, survival T/C. The experiment in a line: NCI In Vivo Anticancer Drug Screen. Data for tumor model P388 Leukemia (intraperitoneal) in CD2F1 (CDF1) mice. Conditions: endpoint: median survival time, higher = longer survival. In outline: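 Mice carrying the transplanted tumor received test compound or vehicle. Survival was recorded in each group, and the value is the treated-group measurement divided by that of the vehicle-treated control group.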

The mark [1] stands for this setting: dose: 60.0 mg/kg/injection, schedule: Q01DX005 (ip), vehicle: saline with Tween-80.
The mark [2] stands for this setting: dose: 120.0 mg/kg/injection, schedule: Q01DX005 (ip), vehicle: saline with Tween-80.
The mark [3] stands for this setting: dose: 240.0 mg/kg/injection, schedule: Q01DX005 (ip), vehicle: saline with Tween-80.
Where [4] appears, read: dose: 60.0 mg/kg/injection, schedule: Q01DX005 (ip), vehicle: Klucel (hydroxypropylcellulose) (HPC).
Setting [5] is: dose: 120.0 mg/kg/injection, schedule: Q01DX005 (ip), vehicle: Klucel (hydroxypropylcellulose) (HPC).
Setting [6] is: dose: 240.0 mg/kg/injection, schedule: Q01DX005 (ip), vehicle: Klucel (hydroxypropylcellulose) (HPC).
[7] abbreviates: dose: 50.0 mg/kg/injection, schedule: Q01DX005 (ip), vehicle: Klucel (hydroxypropylcellulose) (HPC).
Setting [8] is: dose: 100.0 mg/kg/injection, schedule: Q01DX005 (ip), vehicle: Klucel (hydroxypropylcellulose) (HPC).
The mark [9] stands for this setting: dose: 200.0 mg/kg/injection, schedule: Q01DX005 (ip), vehicle: Klucel (hydroxypropylcellulose) (HPC).
Setting [10] is: dose: 50.0 mg/kg/injection, schedule: Q01DX009 (ip), vehicle: Klucel (hydroxypropylcellulose) (HPC).
Setting [11] is: dose: 12.5 mg/kg/injection, schedule: Q01DX009 (ip), vehicle: distilled water + Tween-80.
Setting [12] is: dose: 25.0 mg/kg/injection, schedule: Q01DX009 (ip), vehicle: distilled water + Tween-80.
The mark [13] stands for this setting: dose: 50.0 mg/kg/injection, schedule: Q01DX009 (ip), vehicle: distilled water + Tween-80.
Setting [14] is: dose: 100.0 mg/kg/injection, schedule: Q01DX009 (ip), vehicle: distilled water + Tween-80.

Consider `COc1cccc(C(c2cc3c(cc2O)OCO3)N2CCOCC2)c1O` (configuration not stated), for which the T/C is, setting by setting: under setting [1], 114 % of control (2×) and 116 % of control; under setting [2], 108 % of control and 116 % of control and 122 % of control; under setting [3], 109 % of control and 112 % of control; (dose: 480.0 mg/kg/injection, schedule: Q01DX005 (ip), vehicle: saline with Tween-80) 118 % of control.
In the case of `CCCCCCCCN1CCOCCOCCN(CCCCCCCC)c2nc(Cl)nc(n2)NCCOCCOCCNc2nc(Cl)nc1n2`, the T/C is 98 % of control under setting [1] and 93 % of control under setting [2].
Take `Cc1cc(Cl)ccc1NC(=O)N1CCCCC1`: the T/C reads like this: under setting [4], 96 % of control; under setting [5], 96 % of control; under setting [6], 93 % of control.
For `O=C1C=CC(=NS(=O)(=O)c2ccccc2)C=C1`, the T/C reads like this: (dose: 12.5 mg/kg/injection, schedule: Q01DX001 (ip), vehicle: other) 100 % of control; (dose: 25.0 mg/kg/injection, schedule: Q01DX001 (ip), vehicle: other) 100 % of control; (dose: 50.0 mg/kg/injection, schedule: Q01DX001 (ip), vehicle: other) 100 % of control.
Take `Cc1oc2ccccc2c(=O)c1CO`: the T/C by setting is: under setting [1], 104 % of control; under setting [2], 100 % of control; under setting [3], 100 % of control.
For `O=C1Nc2ccccc2/C1=N/N1C(=O)c2ccccc2C1=O`, the T/C is 91 % of control under setting [7], 92 % of control under setting [8] and 97 % of control under setting [9].
In the case of `CCCCCCCCCCCCCCCCCCN(C)C`, the T/C (dose: 25.0 mg/kg/injection, schedule: Q01DX009 (ip), vehicle: Klucel (hydroxypropylcellulose) (HPC)) is 100 % of control and the T/C under setting [10] was 101 % of control.
In the case of `N=c1c2ccccc2c2ccccc2n1O`, the T/C (dose: 50.0 mg/kg/injection, schedule: Q01DX001 (ip), vehicle: saline sonified) was 110 % of control; the T/C (dose: 100.0 mg/kg/injection, schedule: Q01DX001 (ip), vehicle: saline sonified) is 90 % of control; the T/C (dose: 200.0 mg/kg/injection, schedule: Q01DX001 (ip), vehicle: saline sonified) is 100 % of control.
Take `CCOC(=O)c1ccc(NC(=O)OCc2ccco2)cc1`: the T/C was 89 % of control under setting [4], 92 % of control under setting [5] and 91 % of control under setting [6].
Consider `c1ccc(C(c2ccccc2)(c2cccs2)N2CCCCC2)cc1`, for which the T/C is 99 % of control (dose: 100.0 mg/kg/injection, schedule: Q01DX001 (ip), vehicle: Klucel (hydroxypropylcellulose) (HPC)); 94 % of control (dose: 200.0 mg/kg/injection, schedule: Q01DX001 (ip), vehicle: Klucel (hydroxypropylcellulose) (HPC)); 96 % of control (dose: 400.0 mg/kg/injection, schedule: Q01DX001 (ip), vehicle: Klucel (hydroxypropylcellulose) (HPC)).
For the compound `COCCN=NNc1ccc(C#N)cc1`, the T/C under setting [11] is 100 % of control, the T/C under setting [12] is 105 % of control, the T/C under setting [13] is 101 % of control and the T/C under setting [14] was 97 % of control.
As to `O=C(O)c1c(-c2ccc(Cl)cc2)c(-c2ccc(Cl)cc2)nn(CCO)c1=O`, the T/C (dose: 25.0 mg/kg/injection, schedule: Q04DX002 (ip), vehicle: distilled water + Tween-80) was 101 % of control; the T/C (dose: 50.0 mg/kg/injection, schedule: Q04DX002 (ip), vehicle: distilled water + Tween-80) was 100 % of control; the T/C (dose: 100.0 mg/kg/injection, schedule: Q04DX002 (ip), vehicle: distilled water + Tween-80) is 102 % of control; the T/C (dose: 200.0 mg/kg/injection, schedule: Q04DX002 (ip), vehicle: distilled water + Tween-80) was 95 % of control.
On to `COc1cc(C(=O)Nc2ccc(S(=O)(=O)Nc3nc(C)cc(C)n3)cc2)cc(OC)c1OC`, for which the T/C was 98 % of control (dose: 50.0 mg/kg/injection, schedule: Q01DX005 (ip), vehicle: saline with Tween-80); 88 % of control (dose: 100.0 mg/kg/injection, schedule: Q01DX005 (ip), vehicle: saline with Tween-80); 103 % of control (dose: 200.0 mg/kg/injection, schedule: Q01DX005 (ip), vehicle: saline with Tween-80).
Turning to `CCOC(=O)c1[nH]c(=O)[nH]c(=O)c1I`, the T/C by setting is: under setting [11], 97 % of control; under setting [12], 105 % of control; under setting [13], 106 % of control; under setting [14], 105 % of control; (dose: 200.0 mg/kg/injection, schedule: Q01DX009 (ip), vehicle: distilled water + Tween-80) 105 % of control.
`O=C(Cc1ccccc1)C(Br)C(Br)c1ccccc1` (configuration not stated): the T/C reads like this: (dose: 6.25 mg/kg/injection, schedule: Q01DX009 (ip), vehicle: saline with Tween-80) 100 % of control; (dose: 12.5 mg/kg/injection, schedule: Q01DX009 (ip), vehicle: saline with Tween-80) 118 % of control; (dose: 25.0 mg/kg/injection, schedule: Q01DX009 (ip), vehicle: saline with Tween-80) 113 % of control.
Turning to `OCC1OC(Nc2ccccc2/C=N\O)C(O)C1O` (configuration not stated), the T/C is 98 % of control (dose: 12.5 mg/kg/injection, schedule: Q01DX009 (ip), vehicle: saline); 107 % of control and 96 % of control (dose: 25.0 mg/kg/injection, schedule: Q01DX009 (ip), vehicle: saline); 99 % of control and 115 % of control (dose: 50.0 mg/kg/injection, schedule: Q01DX009 (ip), vehicle: saline); 98 % of control and 95 % of control (dose: 100.0 mg/kg/injection, schedule: Q01DX009 (ip), vehicle: saline).
Turning to `CC(=O)Nc1cc(NC(C)=O)cc(N(CCCl)CCCl)c1`, the T/C is 118 % of control (dose: 3.13 mg/kg/injection, schedule: Q01DX009 (ip), vehicle: water); 151 % of control (dose: 12.5 mg/kg/injection, schedule: Q01DX009 (ip), vehicle: water); 162 % of control (dose: 16.5 mg/kg/injection, schedule: Q01DX009 (ip), vehicle: water); 154 % of control and 169 % of control and 196 % of control (dose: 25.0 mg/kg/injection, schedule: Q01DX009 (ip), vehicle: water); 122 % of control (dose: 37.5 mg/kg/injection, schedule: Q01DX009 (ip), vehicle: water).
Consider `N#C[C@H]1O[C@H]1c1ccc[n+]([O-])c1`, for which the T/C (dose: 12.5 mg/kg/injection, schedule: Q01DX005 (ip), vehicle: saline) was 107 % of control; the T/C (dose: 25.0 mg/kg/injection, schedule: Q01DX005 (ip), vehicle: saline) is 102 % of control; the T/C (dose: 50.0 mg/kg/injection, schedule: Q01DX005 (ip), vehicle: saline) was 103 % of control and 115 % of control.
Regarding `CCC/C(=N\NC(N)=NC)c1ccc2c(c1)Cc1cc(/C(CCC)=N/NC(N)=NC)ccc1-2`, the T/C was 96 % of control (dose: 3.12 mg/kg/injection, schedule: Q04DX002 (ip), vehicle: saline with Tween-80) and 100 % of control (dose: 6.25 mg/kg/injection, schedule: Q04DX002 (ip), vehicle: saline with Tween-80).
Turning to `Cc1ccc(S(=O)(=O)NC(=O)NC2=NC(C)(C)N(c3ccc(Cl)c(Cl)c3)C(N)=N2)cc1`, the T/C was 105 % of control under setting [1], 108 % of control under setting [2] and 114 % of control under setting [3].
Take `Fc1ccccc1C(Nc1nc2ccccc2s1)Nc1nc2ccccc2s1`: the T/C under setting [7] is 109 % of control, the T/C under setting [8] is 104 % of control and the T/C under setting [9] was 113 % of control.
`CC(=O)C1=C(O)/C(=C\C=C\c2ccccc2)OC1=O`: the T/C runs as follows: under setting [10], 111 % of control; (dose: 100.0 mg/kg/injection, schedule: Q01DX009 (ip), vehicle: Klucel (hydroxypropylcellulose) (HPC)) 104 % of control; (dose: 200.0 mg/kg/injection, schedule: Q01DX009 (ip), vehicle: Klucel (hydroxypropylcellulose) (HPC)) 118 % of control.
Turning to `O=C1c2ccccc2S(=O)(=O)N1Cc1ccccc1CN1C(=O)c2ccccc2S1(=O)=O`, the T/C under setting [7] was 92 % of control, the T/C under setting [8] is 89 % of control and the T/C under setting [9] is 89 % of control.
In the case of `CC1=NN(C(=O)c2ccncc2)C(=O)C1N=Nc1ccc(C)cc1` (configuration not stated), the T/C was 105 % of control (dose: 50.0 mg/kg/injection, schedule: Q01DX009 (ip), vehicle: saline with Tween-80); 101 % of control (dose: 100.0 mg/kg/injection, schedule: Q01DX009 (ip), vehicle: saline with Tween-80); 99 % of control (dose: 200.0 mg/kg/injection, schedule: Q01DX009 (ip), vehicle: saline with Tween-80).

For the origin of these results see PubChem BioAssay AID330 (DTP/NCI, 2004).
